Data taken from patent publication US7390508B2, “Use of xenon with hypothermia for treating neonatal asphyxia” (Protexeon Limited, priority 2003, dated 2008).
“And” between values parts separate entries of the source, which are not always exact repeats. Equal entries are not always repeated.

Key:
[1] = system: p7 Sprague-Dawley rat pups; assay: 7-day-old rat model of focal HI, treatment 4 h post-insult, cresyl violet histology of apoptotic, necrotic and viable cells (Example 2); format: in vivo
From the text: p7 Sprague-Dawley rat pups (weighing between 10 and 14 g) from Harlan, U.K. were subjected to a previously described model of HI injury (Levine, 1960; Rice et al, 1981). In brief, rat pups were anaesthetised with 2% isoflurane before undergoing permanent unilateral ligation of the right common carotid artery, using a midline neck incision and 5.0 silk suture. Once surgery was complete, pups recovered from the anaesthesia and were then returned to the dam until the time of experimentation.
1 hr after surgery, pups were exposed to hypoxia by placing them into purpose-built, airtight chambers that were partially submerged in a 37° C. water bath (FIG. 9). […] Hypoxia was induced by a continuous flow of humidified 8% oxygen, balanced with nitrogen, and this mixture was monitored every 15 minutes by a Datex Ohmeda (Bradford, U.K.). (All gases were supplied by BOC.)
Following HI, pups were returned to the dam for 4 hrs to recover, after which time they were subjected to 90 minutes of one of the experimental interventions below. […] No significant difference existed between the two time periods and thus 4 h post-insult was chosen as the time to apply the intervention, as it was thought to be the most clinically relevant.
Pups were returned to their mothers until sacrifice at 16, 24 and 48 h following treatment (Northington et al, 2001) (FIG. 10).
The same experimental paradigm was followed for treatment with xenon, but instead of hypothermia, the water bath was maintained at 37° C. and the gas mixture was changed to 25% oxygen and 75% xenon for 90 minutes. Gas was delivered into a purpose-built, closed system to minimise xenon leakage (FIG. 9). Once again, the pups were returned to their mothers until sacrifice.
In the combination paradigm, the rats underwent both hypothermia and xenon concurrently for 90 minutes. Again, the pups were placed in airtight chambers, but on this occasion, their temperatures were maintained at 35° C. and the gas mixture consisted of 25% oxygen, only 20% xenon and balanced nitrogen. This temperature and xenon concentration was shown in preliminary experiments, to confer no neuroprotective benefit to the developing brain when used independently. Thus, by using these values, any neuroprotective benefit at all is indicative of synergy between the two agents. Following treatment, pups were returned to their mothers until sacrifice.
Neuronal injury was assessed by histological analysis of paraffin brain slices stained with cresyl violet. Cresyl violet is a basic stain that binds to acidic components of neuronal cytoplasm such as RNA-rich ribosomes, and also the nuclei and nucleoli of nerve cells.
Each experimental group consisted of three time groups (16, 24, 48 h), and each time group contained three animals, (thus there were nine animals in total for each experimental group). Three slides per animal were chosen from the area of the brain that was −3.6 mm from the bregma (FIG. 11). Slides were then sorted into time groups and the examiner was blinded to the intervention.
Two areas from the ipsilateral side of each brain were analysed using a BX60 light microscope (Olympus, Southall, U.K.)—one in the cortex and one in the gyrus of the hippocampus (FIG. 11). A 40× objective lens with a grid was used to count the total number of cells that appeared in the grid. Cells were scored as either viable, apoptotic, or necrotic based on their morphological appearance, and the percentage of each cell type was noted down for each of the brain areas. An Axiocam digital camera (Zeiss, Göttingen, Germany) was used along with the microscope to take photomicrographs of the brain slices.
The criteria for assigning cells to each category was as follows (FIG. 12): • 1. Cells undergoing either type of cell death (apoptosis or necrosis) took up the cresyl violet stain more intensely than viable cells, which were regularly shaped with pale cytoplasm, and a clearly visible, darker nucleus. • 2. […]

[2] = system: Seven day old postnatal Sprague-Dawley rats; assay: Neonatal asphyxia model, xenon during or 2 h after hypoxia (Example 1); format: in vivo, rat
Experimental: Seven day old postnatal Sprague-Dawley rats underwent right common carotid artery ligation under surgical anaesthesia (1%-1.5% isoflurane in pure oxygen). After ligation, the animals were returned to their mothers and placed in a specially designed area with constant of room temperature (23° C.) and humidity (48%). One hour after surgery, neonatal rats were placed in specially designed chamber with 8% oxygen combined with 0, 20, 40, 60 or 70% Xenon (with nitrogen making up the balance) for 90 min at 37° C. (temperature kept by water bath running outside chambers). At post-experimental day 7, rats (14 day old) were killed and their brains removed. The ratio of right hemisphere weight against left (R/L ratio) was calculated. Rat pups in some groups were allowed to live up to 30 days of postnatal age, at which time their neuromotor function and co-ordination were assessed with established protocols (Neuromotor testing and Rotarod testing).
The concentration-dependence of xenon neuroprotection (ratio right hemisphere weight/left against xenon concentration) is shown in FIG. 4. […] Control animals were subjected to carotid ligation but no hypoxia was given. Results are mean±SEM (n=5−8). * P<0.01 vs 8% O2.
At postnatal day 7 the right carotid artery was ligated and rat pups were exposed to a hypoxic environment (8% oxygen+70% xe and balance with nitrogen) for 90 min. Thirty days after the insult, rats were evaluated for neuromotor function (A) using a panel that included assays of prehensile traction, strength, and balance beam performance (graded on a 0-9 scale) and (B) balance on a Rotarod, a standard test of balance and neuromotor function. The data point from an individual rat is the sum of three tests. The horizontal bars indicate the median for each group.
The neuroprotective effect (ratio of right hemisphere/left) observed with N2 and xenon respectively is shown in FIG. 6, when xenon is administered 2 hours post HI insult. […]

neuronal cultures = assay: oxygen-glucose deprivation (OGD)-induced lactate dehydrogenase (LDH) release in neuronal cultures; format: cell-based; conditions: for ED50 for xenon, OGD-induced LDH release: 75 minutes OGD, 6 hours of recovery, xenon concentration % atm, mean +/- SEM
Experimental: The effect of mild hypothermia on the neuroprotective effect of xenon (LDH release against xenon concentration, % atm) is shown in FIG. 7. […] Cooling by 4 degrees greatly enhances the potency of xenon in blocking LDH release. […] (red), or at 33° C. (blue). […] Neuronal injury is expressed as a percentage of the maximal LDH release after 75 minutes of OGD and 6 hours of recovery in the absence of either xenon or hypothermia. Points represent mean values, with error bars indicating standard errors.
From the slope of such a plot the enthalpy change of the process can be calculated, its size being a measure of the temperature dependence. The data in red show the effect of temperature on LDH release in the absence of xenon. The reduction of release as the temperature is reduced is expected but modest. […] Hypothermia therefore appears to greatly enhance the neuroprotective effects of xenon.

[3] = xenon dissolved or dispersed in lipid emulsion; format: physicochemical; conditions: 20° C. and normal pressure
Experimental: It has been established that appreciable amounts of xenon maybe added to a lipid emulsion. Even by the simplest means, at 20° C. and normal pressure, xenon can be dissolved or dispersed in concentrations of 0.2 to 10 ml or more per ml of emulsion. The concentration of dissolved gas is dependent on a number of factors, including temperature, pressure and the concentration of lipid.

[4] = 20% xenon alone, 37° C., cortex, 16 h, mean±SD (n=3)
[5] = 75% xenon, 37° C., 90 min, cortex, 16 h, mean±SD (n=3)
[6] = 75% xenon, 37° C., 90 min, gyrus, 16 h, mean±SD (n=3)
[7] = combination 20% xenon + 35° C. hypothermia, cortex, 16 h, mean±SD (n=3)

Question: What does the source list for `[Xe]` [xenon]?
Answer: neuroprotection ([1]; 20% xenon alone, 37° C.): no neuroprotective effect; percentage of apoptosis [1, 4]: 36%±5.7% and 35.8%±5.7%; percentage of viability [1, 4]: 51%±7.8%; apoptosis (percentage of total cell number) [1, 5]: 8.5%±1.6%; viable cell count (percentage of total cell number) [1, 5]: 80.6%±0.2%; apoptosis (percentage of total cell number) [1, 6]: 13.9%±2.4%; viable cell count (percentage of total cell number) [1, 6]: 77.1%±3.3%; anti-necrosis ([1]; 75% xenon, 16 and 24 h groups): not anti-necrotic; anti-apoptosis compared to positive control animals ([1]; 75% xenon, 24 and 48 h groups, cortex and gyrus): statistically significant anti-apoptosis; percentage of viable cells vs. positive controls ([1]; 75% xenon, 24 h, cortex and gyrus): significant increase in the percentage of viable cells; necrosis (percentage of total cell number) ([1]; 75% xenon, cortex, 48 h, mean±SD (n=3)): 10.7%±0.4%; anti-necrosis ([1]; 75% xenon, gyrus, 48 h): not however anti-necrotic; neuroprotection ([1]; combination 20% xenon + 35° C. hypothermia, both areas of the brain, 16, 24 and 48 h): profound synergistic neuroprotection; apoptosis (percentage of total cell number) [1, 7]: 7.2%±2%; viable cells (percentage of total cell number) [1, 7]: 82.3%±4.9%; type of protection ([1]; combination 20% xenon + 35° C. hypothermia, gyrus, 24 h): anti-necrotic as well as anti-apoptotic protection; concentration-dependence of xenon neuroprotection (ratio right hemisphere weight/left) ([2]; 0, 20, 40, 60 or 70% xenon with 8% oxygen for 90 min at 37° C., brains at 14 days): Neuroprotection is evident even at sub-anaesthetic concentrations; neuroprotective effect (ratio of right hemisphere/left) ([2]; 70% Xe+30% O2 for 90 min, given 2 hours after the end of the hypoxic period): effective in providing neuroprotection; gross anatomical appearance of brain slices ([2]; 70% xenon breathed during the 90 min hypoxic period): look close to normal; temperature dependence of LDH release (van't Hoff plot) (neuronal cultures; 12.5% xenon present): very large and unexpected; ED50 for xenon, OGD-induced LDH release (neuronal cultures; 33° C.): 11.5+/−2.0%; ED50 for xenon, OGD-induced LDH release (neuronal cultures; 37° C.): 35.9+/−2.15%; concentration of xenon dissolved or dispersed in lipid emulsion [3]: 0.2 to 10 ml per ml of emulsion
